According to patent publication US20100042137A1, “ACUPUNCTURE AND ACUPRESSURE THERAPIES” (priority 2008, published 2010):
Read-outs that look alike come from different tables or passages of the source.

Assays:
[1] = test system: human patients
From the text: (i) 10/10 pain from sacroilitis.
(ii) 5/10 pain from trochanteric bursitis.
(iii) 7/10 pain from Morton's neuroma.
(iv) 5/10 pain from lateral epicondylitis.

[2] = test system: Patients with Back, Shoulder, Leg Pain; test: Treatment of patients with back, shoulder, leg pain by injection; pain level x/10; format: in vivo, human
From the text: (iv) A patient presented initially with 9/10 mechanical low back pain.
(v) A patient with an L5 radiculopathy complained of a 6/10 low back pain which was unrelieved by trigger point injections, sacroiliac injections and epidurals.
(vii) A patient presented with a 8/10 back pain from lumbar facet arthropathy.
(viii) A patient presented with an 8/10 back pain with radiation down leg from lumbar radiculopathy.
(xii) A patient presented with a 9/10 low back pain and 8/10 shoulder and neck pain.
(ii) A patient presented with a 4/10 pain due to sacroiliac strain.
(ii) A patient presented with a 4/10 neck pain from cervical degenerative disc disease.
(iii) A patient presented with a 9/10 pain globally from cervical spondylotic myelopathy.

[3] = test system: human patients; remark: listed apart in the source
[4] = test system: Patients with Multiple Indications; test: Treatment of patients with multiple indications by injection; pain level x/10; format: in vivo, human; conditions: for Pain level After: 2 cc injected
[5] = test system: human patients; test: Treatments with saline; pain level x/10; format: in vivo; conditions: general observation in parenthesis
From the text: (i) A patient presented with a 2/10 rotator cuff tendinopathy.
(ii) 5/10 sacroiliac strain.
(iv) A patient presented with a 6/10 pain globally from severe systemic lupus erthymatosis (SLE).
(v) A patient presented with a 7/10 pain right medial knee pain from pes anserine bursitis.

[6] = test system: human patients; test: Treatment with epinephrine or Restylane at specific influential points, also in combination with magnets; pain level x/10; format: in vivo
From the text: (i) A patient presented with a 6/10 left ankle pain from gout.
(ii) A patient presented with an 8/10 pain and stiffness from Parkinson's disease.
(iii) A patient presented with a 5/10 neck pain and stiffness.
(iv) A patient presented with a 5/10 neck and upper back pain from syringomyelia.
(v) A patient presented with a 5.8/10 right shoulder pain from rotator cuff tendinopathy.
(vi) A patient presented with a 2/10 shoulder pain from a rotator cuff tendinopathy.
(vii) A patient presented with a 10/10 frontal sinus headache which was present for over 1 week.
(viii) A patient presented with a 4/10 tension headache over the temples and neck with photophobia on which is present 2-3 times a week on average.
(ix) A patient presented with 10/10 pain from bilateral tarsal tunnel syndrome.
(x) A patient with chronic radicular left leg pain 6/10.
(i) A patient presented with a 5/10 pain globally especially in the low back.
(ii) A patient presented with a 5/10 pain in the mid back who had never had acupuncture before.
(iii) A patient presented with a 10/10 pain in an amputee with a compound fracture of their femur.
(i) A patient presented with common peroneal neuropathy with a pain level of 9/10.
(ii) Patient with 9/10 back pain from sacroilitis.

[7] = test system: Patients with Arthritis; test: Treatment of patients with arthritis by injection at or near acupuncture points; pain level x/10; format: in vivo, human
From the text: Treatment of Patients with Arthritis
(i) A patient presented with a 5/10 pain from severe rheumatoid arthritis.
(ii) A patient presented with an 8/10 pain from severe rheumatoid arthritis.
(iii) A patient presented with 8/10 pain from severe rheumatoid arthritis with diffuse joint stiffness, swelling and tenderness.
(i) A patient presented with a pain level of 10/10 from cervical strain due to seronegative rheumatoid arthritis.
(ii) A patient presented with a 7.5/10 pain globally from a seronegative arthritis (unspecified).
A patient presented with a 5/10 pain from bilateral post-traumatic subtalar arthritis.

## CCN(CC)CC(=O)Nc1c(C)cccc1C [lidocaine]
[1]; 5/10 pain from lateral epicondylitis, 0.1 cc 2% lidocaine s.c. over lateral epicondyle
  pain after injection: complete pain relief
[1]; 5/10 pain from trochanteric bursitis, 0.1 cc 2% lidocaine bilaterally s.c. over trochanteric bursae
  pain after injection: complete pain resolution
[1]; 7/10 pain from Morton's neuroma, 0.1 cc 2% lidocaine s.c. on dorsal foot between metatarsal heads
  symptoms after injection: complete resolution of symptoms
[1]; 10/10 pain from sacroilitis, 0.1 cc 2% lidocaine s.c. over the sacroiliac joints
  pain after injection: immediate pain cessation and return to full mobility
[1]; same patient
  duration of complete pain relief: 1 days
  duration of complete pain resolution: 3 weeks
  duration of complete resolution of symptoms: 2 weeks
[1]; same patient, magnets put over the two injection sites afterwards
  pain relief still complete at time later: ≥ 10 days
[2]; 4/10 neck pain from cervical degenerative disc disease, 2 cc bilaterally s.c. over GH joints
  pain level after injection: 2/10
[2]; 4/10 pain due to sacroiliac strain, 2 cc bilaterally s.c. over GH joints
  pain after injection: disappearance of all pain
[2]; 5/10 back pain due to rupture of the annulus, 2 cc 1% lidocaine into GH joints bilaterally
  pain after injection: no relief
[2]; 6/10 mechanical low back pain before, 2 cc bilaterally into GH joints
  pain level after injection: about 3/10
[2]; 6/10 mechanical low back pain, 2 cc bilaterally into GH joints
  pain relief: about 50%
[2]; 7/10 low back pain due to SI strain before, 2 cc into GH joints bilaterally
  pain level after injection: 4/10
[2]; 8/10 back pain with radiation down leg, lumbar radiculopathy, 2 cc bilaterally s.c. over GH joints
  pain level after injection: 1/10
[2]; 9/10 mechanical low back pain before, 2 cc bilaterally into GH joints, agent not given, heading: Injection of Lidocaine
  pain level after injection: 4/10
[2]; lumbar facet arthropathy, s.c. over GH joints bilaterally
  pain after injection: resolution of pain
[2]; same patient as E28
  follow-up of pain relief: still pain free one week later
[2]; same patient as E34
  other effects stated by patient: felt more awake, alert and had a sense of well-being
[3]; excessive drooling (sialorrhea), 0.1 cc lidocaine 2% near Li 4
  drooling after injection: cessation of drooling
[3]; narcolepsy, falling asleep in the office, 0.1 cc 2% lidocaine near Li 4
  effect on sleepiness: noticeably woke patient up
[3]; same patient
  duration of cessation of drooling: 2 weeks
  duration of effect: lasted throughout the day
[4]; 6/10 bilateral shoulder pain, glenohumeral arthritis, 4 ccs into GH joints bilaterally
  shoulder pain level after injection: 1/10
[4]; 6/10 shoulder pain (bilateral rotator cuff tendinopathy) and 6/10 low back pain (lumbar spinal stenosis), 2 cc bilaterally into GH joints
  pain relief: about 50%
[4]; 10/10 post surgical pain from tracheostomy and 6/10 coccygodynia, 2 cc s.c. bilaterally over GH joint
  pain level after injection, right side of the body: 2/10
[4]; Cervical spondylotic myelopathy, Before 9/10
  Pain level After: 1/10
[4]; Chronic pelvic pain of non menstrual origin, Before 6/10
  Pain level After: 0
[4]; Dermatomyositis, Before 6/10
  Pain level After: 2/10
[4]; Knee pain, Before 5/10
  Pain level After: 0
[4]; Lumbar radiculopathy, herniated disk and scatia, Before 8/10
  Pain level After: 0
[4]; Multiple Sclerois with pain in legs, Before 7/10
  Pain level After: 0
[4]; Peptic Ulcer with gnawing epigastric pain, Before 8/10
  Pain level After: 0
[4]; Plantar Fasciitis, Before 6/10
  Pain level After: 0
[4]; Reflex sympathetic dystophy, Before 6/10
  Pain level After: 0
[4]; same patient
  other effects reported by patient: felt more awake, had a better mood, and could breathe easier
[4]; same patient as E44, 6/10 before
  pain level after injection: 3/10
[4]; same patient, 6/10 low back pain, lumbar spinal stenosis, 4 ccs
  low back pain level after injection: 2/10
[4]; same patient, another 2 cc over only the left GH joint
  pain after further injection: disappearance of all pain
[5]
  effect of unilateral injection over the GH joint: seems to provide analgesia on the opposite side of the body
[6]; 9/10 back pain from sacroilitis, 0.1 cc lidocaine 2% bilaterally s.c. over sacroiliac joints (B 47, B 23)
  pain after injection: disappearance of all back pain
[6]; same patient
  pain after therapeutic magnets put over the sites of injection: again disappeared
  time after which the pain started to come back: 2 days
[7]; 6/10 shoulder pain (glenohumeral arthritis) and 7/10 low back pain (lumbar stenosis), 2 cc into GH joints bilaterally
  pain after injection: complete pain relief
[7]; 9/10 elbow pain (radiohumeral arthritis) and 10/10 mechanical low back pain, 2 cc into GH joints near Lu 1 bilaterally
  pain after injection: complete relief
[7]; bilateral post-traumatic subtalar arthritis, 5/10 before, 2 cc bilaterally s.c. over GH joints near Lu 1
  pain after injection: disappearance of all pain
[7]; cervical strain due to seronegative rheumatoid arthritis, 10/10 before, 1 cc bilaterally s.c. over GH joints
  pain level after injection: 4/10
[7]; right glenohumeral osteoarthritis 9/10 and 8/10 low back pain (sacroiliac strain), 2 ccs bilaterally into GH joints, agent not given, heading: Injection of Lidocaine
  pain after injection: total relief
[7]; same patient as E13
  duration of pain relief: 3 days
[7]; same patient as E15
  duration of pain relief: 1 week
[7]; same patient, 4/10 before, another 2 cc lidocaine bilaterally s.c. over GH joints
  pain level after injection: 3/10
[7]; seronegative arthritis (unspecified), 7.5/10 globally before, 2 cc bilaterally s.c. over GH joints
  pain after injection: disappearance of all pain
[7]; severe RA, s.c. over GH joints bilaterally
  pain after injection: resolution of all pain
[7]; severe rheumatoid arthritis, 5/10 before, 2 cc bilaterally s.c. over glenohumeral (GH) joints near Lu 1
  pain after injection: disappearance of all pain and return of mobility

## C[C@]12C=CC(=O)C=C1CC[C@H]1[C@@H]3C[C@@H](O)[C@](O)(C(=O)CO)[C@@]3(C)C[C@H](O)[C@@]12F [triamcinolone]
[4]; cervical stenosis 8/10 and lumbosacral strain 7/10, triamcinolone only into GH joints bilaterally
  pain after injection: complete relief
